Article PMC3652196, “Pharmacometrics of 3-Methoxypterostilbene: A Component of Traditional Chinese Medicinal Plants” (Evidence-based Complementary and Alternative Medicine : eCAM, 2013)

Tests used:
COX-2 = target: T1, COX-2 (Homo sapiens, UniProt P35354); test: COX inhibitor screening assay (EIA of prostaglandins), COX-2; assay type: biochemical
T1 construct: purchased Cayman Chemical 560131
T1 sequence (P35354 18-604): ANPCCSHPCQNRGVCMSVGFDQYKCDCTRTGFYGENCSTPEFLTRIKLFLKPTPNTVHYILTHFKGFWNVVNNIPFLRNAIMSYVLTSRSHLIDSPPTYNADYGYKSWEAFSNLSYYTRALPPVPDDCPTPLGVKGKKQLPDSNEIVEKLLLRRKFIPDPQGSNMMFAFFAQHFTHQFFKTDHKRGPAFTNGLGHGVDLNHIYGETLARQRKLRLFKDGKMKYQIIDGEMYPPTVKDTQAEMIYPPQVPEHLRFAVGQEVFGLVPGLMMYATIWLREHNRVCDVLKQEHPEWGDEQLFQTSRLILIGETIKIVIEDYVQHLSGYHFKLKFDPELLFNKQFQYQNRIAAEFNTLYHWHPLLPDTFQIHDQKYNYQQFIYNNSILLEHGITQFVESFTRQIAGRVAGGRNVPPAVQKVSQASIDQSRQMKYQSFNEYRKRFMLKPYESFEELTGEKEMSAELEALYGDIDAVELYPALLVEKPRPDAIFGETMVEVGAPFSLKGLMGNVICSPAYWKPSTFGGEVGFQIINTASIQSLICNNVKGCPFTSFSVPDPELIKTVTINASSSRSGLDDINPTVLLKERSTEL
Description: The inhibition of COX-1 and -2 by 3-methoxypterostilbene was measured through the use of a three-day commercial assay kit. The assay relied on the quantification of the prostanoid product based on enzyme immunoassay (EIA), which uses a nonspecific antibody for prostaglandins (PGs). The constant concentration of the PG-AChE-tracer and the varying concentrations of the PGs available to bind to the antiserum is inversely proportional to the concentration of free PGs in the well. For this assay, 3-methoxypterostilbene was dissolved in DMSO over the concentration range of 1–250 μg/mL. Ibuprofen and etodolac, COX-2 preferential NSAIDs, were dissolved in DMSO and used as controls over the concentration range of 1–250 μg/mL. Reagents were prepared according to the manufacturer's instructions that accompanied the kit. The ELISA plate for this purpose was read at an absorbance of 415 nm within 10 minutes at room temperature (23 ± 1°C) using the Synergy HT multiwell plate reader and Gen5 data analysis software (Biotek Instruments Inc., Winooski, VT, USA). The assay was performed in quadruplet. For more information regarding the assay protocol, please refer to the instructions for the kit (COX Inhibitor Screening Assay Kit from Cayman Chemical—Cat. no. 560131).

[1] = system: α-glucosidase from Saccharomyces cerevisiae; test: α-Glucosidase inhibition colorimetric assay (PNPG); assay type: biochemical; conditions: 0 to 200 μg/mL, n = 6
[2] = target: T2, α-amylase from porcine pancreas type VI-B (Sus scrofa, UniProt P00690); test: α-Amylase inhibition colorimetric assay (BPNPG7, amylase HR reagent); assay type: biochemical
T2 construct: α-amylase from porcine pancreas type VI-B; purchased Sigma-Aldrich; host or cells: porcine pancreas
T2 sequence (P00690 16-511): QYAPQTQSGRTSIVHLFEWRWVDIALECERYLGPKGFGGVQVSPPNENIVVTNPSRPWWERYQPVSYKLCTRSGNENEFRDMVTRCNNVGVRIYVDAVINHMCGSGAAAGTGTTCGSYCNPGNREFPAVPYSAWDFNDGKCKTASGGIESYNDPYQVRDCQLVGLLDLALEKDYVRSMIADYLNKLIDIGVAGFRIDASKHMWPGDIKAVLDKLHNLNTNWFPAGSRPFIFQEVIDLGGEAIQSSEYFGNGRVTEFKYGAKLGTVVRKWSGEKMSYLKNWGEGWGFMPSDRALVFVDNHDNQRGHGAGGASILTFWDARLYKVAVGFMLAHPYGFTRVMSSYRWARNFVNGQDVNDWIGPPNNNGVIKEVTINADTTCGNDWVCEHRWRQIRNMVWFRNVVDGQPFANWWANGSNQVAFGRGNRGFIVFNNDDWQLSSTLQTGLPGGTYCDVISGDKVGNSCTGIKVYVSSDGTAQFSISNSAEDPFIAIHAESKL

crown-gall = system: crown-gall; design: method as in PMID 3598597; conditions: cited from earlier work
[3] = system: human leukemia-derived HL60 cells; conditions: cited from earlier work

COc1cc(/C=C/c2ccc(O)c(OC)c2)cc(OC)c1 [3-methoxypterostilbene, trans-3,3′-5-trimethoxy-4′-hydro-xystilbene]
COX-2 inhibition versus NSAIDs (in words) (COX-2; 10 μg/mL): statistically greater inhibition (P < 0.05) than etodolac at 1 μg/mL and ibuprofen at 250 μg/mL
COX-2 inhibitory activity (in words) (COX-2; 1, 10 and 250 μg/mL): moderate inhibition of COX-2
α-Glucosidase inhibition (in words) [1]: does not appear to exhibit greater inhibition at higher concentrations
α-Amylase inhibition (in words) ([2]; 0 to 200 μg/mL, n = 6): relatively weak inhibition of α-amylase
α-Amylase activity at the highest concentrations tested (in words) ([2]; highest concentrations tested): appears to increase activity of α-amylase
Activity in crown-gall plant antitumor (potato disk) assay compared with piceatannol (crown-gall): significantly greater activity
Apoptotic-inducing activity [3]: greater apoptotic-inducing activity than resveratrol
